Measurements as given in article PMC5764437, “Discovery of novel, orally bioavailable, antileishmanial compounds using phenotypic screening” (PLoS Neglected Tropical Diseases, 2017).
Values after ≈ are worked out from the molar mass of the structure shown. Like-named read-outs stand apart in the source and are kept apart here.

How the values were obtained:
[1] = system: L. mexicana intracellular amastigotes; test: Growth inhibition of intracellular amastigotes in J774A.1 macrophages (Renilla luciferase luminescence); assay type: cell-based; details: Leishmania mexicana, J774.A1; intracellular amastigotes in J774A.1 macrophages; mean ± standard deviation, n = 2; read-out: L. mexicana EC50
Description: (§1) L. mexicana (MNYZ/BZ/62/M379) or L. donovani (LdBob strain) parasites expressing the Renilla luciferase gene from a rRNA gene locus were used to infect J774A.1 macrophages. Growth of intracellular amastigotes was measured using a luminescence assay, as detailed previously. The growth inhibitor activities of compounds were tested against bloodstream form Lister 427 T. brucei in 96-well plates containing 1 X 10^5 parasites per well in 0.2 ml HMI-11 medium (Gibco/Thermo Fisher). Compounds (2 μl volumes in DMSO) were added to the parasites using serial 3-fold dilutions to cover a range of concentrations from about 10 μM to 1 nM. After 48 h incubation at 37°C under a humidified 5% CO2 atmosphere, 10 μl of 10% Triton X-100 and 100 X stock SYBR Green I (Sigma-Aldrich) in PBS was added and florescence measured (excitation 497 nm; emission 520 nm) after 1 h incubation in the dark using a Spectra Max Gemini XPS fluorimeter (Molecular Devices). Data were log transformed and EC50 values were determined using GraphPad Prism 6 (GraphPad Software). In the absence of growth inhibiting compounds, the parasites grew from an initial density of 5 X 10^5 cells/mL to ~3 X 10^6 cells/mL.
[…]. These were chosen as candidates for further study. From these 230 compounds, we were able to repurchase 113 from commercial vendors. These compounds were characterized for purity by ultra-performance liquid chromatography using ultraviolet spectroscopy and evaporative light scattering detection and identity by mass spectrometry. All validated compounds were profiled for activity against intracellular amastigotes, the disease-causing stage of the life cycle. Intracellular amastigote activity was determined using a strain of L. mexicana in which the Renilla luciferase gene was integrated into the rRNA locus, allowing robust expression for measuring amastigote growth within cultured macrophages. All 113 compounds were applied at 1 μM concentration for 96 h to J774A.1 macrophages infected with L. mexicana luciferase-expressing parasites. […].
Next, we generated dose-response curves for these 55 compounds against intracellular amastigotes and independently against J774A.1 macrophages to establish the relative potency of each compound against the pathogen and its host cell. […]. The nine remaining compounds, each representing a unique chemical scaffold (compounds 1–9, Fig 3), were designated top hits (Fig 1).

[2] = system: L. donovani intracellular amastigotes; test: as above; assay type: cell-based; details: Leishmania donovani, J774.A1; intracellular amastigotes in J774A.1 macrophages; mean ± standard deviation, n = 2; read-out: L. donovani EC50
Description: as §1

[3] = system: bloodstream form Lister 427 T. brucei; test: Growth inhibition of T. brucei bloodstream forms (SYBR Green I); assay type: cell-based; details: bloodstream form, mean ± standard deviation, n = 2, read-out: T. brucei EC50
Description: as §1

J774A.1 macrophages = test: Cytotoxicity to J774A.1 macrophages (dose-response); assay type: cell-based; details: Mus musculus, J774.A1; host macrophage; tested up to 10 μM; mean ± standard deviation, n = 2; read-out: J774A.1 EC50
Description: Cytotoxicity of compounds to J774.A1 macrophages was determined by dose-response curves as described previously. In the absence of growth inhibitors or DMSO, the macrophages increased in number ~6-fold over 96 h in Minimum Essential Medium, employed for both macrophage infections and the toxicity assays.

[4] = system: Trypanosoma cruzi CL Brener epimastigotes; test: Growth inhibition of Trypanosoma cruzi epimastigotes (SYBR Green); assay type: cell-based; details: Trypanosoma cruzi; 72 h, 10 μM to 1 nM; read-out: T. cruzi epimastigotes EC50
Description: Trypanosoma cruzi CL Brener epimastigotes were obtained from Dr. Fred Buckner of the Department of Medicine at the University of Washington. T. cruzi epimastigotes were grown in liver infusion tryptose medium and seeded in a 96-well plate at 10^5 epimastigotes per well in 100 μl medium. For each well, 1 μl of compound in DMSO at 100X the desired final concentration was added. Epimastigotes were exposed to a range of compound concentrations from 10 μM to 1 nM to determine EC50. Plates were incubated at 26°C for 72 h, then 10 μl 50X SYBR Green in 1% Triton X-100 was added to each well followed by incubation with shaking at room temperature for 30 minutes. Fluorescence was read (excitation 485nm, emission 535nm) with the Victor^2 multiplate reader (PerkinElmer). All data processing and visualization were performed using GraphPad Prism 6 software.

[5] = Solubility in aqueous buffer; assay type: physicochemical; details: pH 7.4, aqueous buffer, kinetic from dmso stock
Description: Solubility assays were carried out on a Biomek FX lab automation workstation (Beckman Coulter, Inc., Fullerton, CA) using μSOL Evolution software (pION Inc.). Compound stock (10 mM in DMSO, 10 μL) was added to 1-propanol (190 μL) to make a reference stock plate. Reference stock solution (5 μL) was mixed with 1-propanol (70 μL) and citrate phosphate buffered saline (pH 7, 75 μL) to make the reference plate which was then measured with UV detection. Test compound stock (10 mM, 6 μL) was added to citrate phosphate buffered saline (594 μL) in a 96-well storage plate and mixed. […] The suspension was then filtered through a 96-well filter plate (pION Inc.). Filtrate (75 μL) was mixed with 1-propanol (75 μL) to make the sample plate, and the UV spectrum (250 nm −500 nm) of the sample plate was recorded. Calculation of solubility was carried out using μSOL Evolution software based on the AUC of the UV spectrum of the sample plate and the reference plate. All compounds were tested in triplicate.

in vitro [6] = details: pH 7.4
Description: Parallel Artificial Membrane Permeability Assay (PAMPA) was conducted by Biomek FX lab automation workstation (Beckman Coulter, Inc.) and PAMPA evolution 96 command software (pION Inc.). A 3 µL aliquot of […] test compound stock in DMSO was mixed with 597 µL of isotonic citrate phosphate buffered saline to make diluted test compound. Diluted test compound (150 µL) was transferred to a UV plate (pION Inc.) and the UV spectrum was read as the reference plate. The membrane on a pre-loaded PAMPA sandwich (pION Inc.) was painted with 4 µL GIT lipid (pION Inc.). The acceptor chamber was then filled with 200 µL acceptor solution buffer, (pION Inc.), and the donor chamber was filled with 180 µL diluted test compound. The PAMPA sandwich was assembled, placed on the Gut-Box and stirred for 30 min. The Aqueous Boundary Layer was set to 40 µm for stirring. The UV spectrum (250-500 nm) of the donor and the acceptor solutions were recorded. The permeability coefficient was calculated using PAMPA Evolution 96 Command software (pION Inc.) based on the AUC of the reference plate, the donor plate and the acceptor plate. All compounds were tested in triplicate.

[7] = Caco-2 permeability assay; assay type: in vitro ADME; details: human, pH 7.4; for Papp A→B at 2 h, 10 μmol/L / Papp B→A at 2 h, 10 μmol/L: mean ± standard deviation of three runs; for Papp A→B at 2 h, 10 μmol/L: read-out: Caco-2 (A→B) permeability coefficient; for Papp B→A at 2 h, 10 μmol/L: read-out: Caco-2 (B→A) permeability coefficient
[8] = Stability in simulated gastric fluid; details: pH 1
Description: Compound stocks were 10 mM in DMSO. The internal standard was 5 µM warfarin in methanol. […] 1 ml SGF was added to a 1.1 ml 96-well storage plate and mixed well with 10 µl compound stock. The plate was then incubated at 37 °C and shaken at 60 rpm. […] At each time point, 100 µl was removed to a 1 ml storage plate and 300 µl internal standard was added to quench the reaction. […] The compound was detected by SIR and quantification was based on peak area of test compound and the internal standard.

in vitro [9] = details: female, microsomes, pH 7.4
Description: (§2) One part of 10 mM DMSO compound stock was mixed with 4 parts of acetonitrile to make 2 mM diluted compound stock in DMSO and acetonitrile. 29.1 µL diluted compound stock was added to 2.3 mL liver microsomal solution and vortexed to make microsomal solution with compound. […] For the 0 h time point, 450 µL pre-cooled (4 °C) internal standard (10 µM warfarin in methanol) was added to the first three columns before the reaction was initiated. 1.25 ml of microsome assay solution A (Fisher Scientific, #NC9255727) was combined with 0.25 ml of solution B (Fisher Scientific, #NC9016235) in 3.5 ml of potassium phosphate buffer (0.1 M, pH 7.4). 45 µL of this A+B solution was added to each well of the 96-well storage plate (reaction plate). Liquid in the first 3 columns was moved to another storage plate (quenched plate). The reaction plate was then sealed, incubated at 37 °C, and shaken at a speed of 60 rpm. Time points (0.5 h, 1 h, 2 h) were taken. At each time point, 450 µL pre-cooled internal standard was added to 3 rows in the reaction plate, and the liquid was then transferred to the quenched plate. […] 200 µL supernatant was transferred to a 96-well plate and analyzed by ultra-performance liquid chromatography-mass spectrometry (UPLC-MS) (Waters Inc.). The compounds and internal standard were detected by selected ion recording (SIR).

in vitro [10] = details: microsomes, pH 7.4
Description: as §2

in vitro [11] = details: both, microsomes, pH 7.4
Description: as §2

L. mexicana = test: Efficacy in murine model of cutaneous leishmaniasis (footpad lesion size); assay type: in vivo; details: BALB/c mice infected with L. mexicana; 20 mg/kg daily oral gavage for 10 days from week 4; measured weeks 4–12
Description: Female BALB/c mice (~20 g) were injected in one hind footpad with 1 x 10^6 stationary phase promastigotes suspended in 25 μl of phosphate buffered saline (PBS). Four weeks after infection, when a small cutaneous lesion was visible in the injected footpad, cohorts of five mice were treated with either compound or vehicle alone (90 μl), delivered daily for 10 consecutive days by oral gavage using a 20-gauge x 30 mm disposable plastic feeding needle. Vehicle consisted of 10/10/40/39 mixture of ethanol/(PG)/PEG400/PBS plus 1% (weight/volume) 2HβCD (PG is propylene glycol, PEG is polyethylene glycol, 2HβCD is 2-hydroxy-β-cyclodextran). The daily dose for each compound was: compound 4, 25 mg/kg; compound 5, 30 mg/kg; miltefosine, 20 mg/kg. The width of the footpad (top to bottom) was measured with calipers before injection of parasites (day 0) and weekly from weeks 4–12. The width of the uninfected contralateral footpad was also measured each week, and its width was subtracted from that of the infected footpad to determine lesion size.

For `Cc1ccc(-c2cc3c(c(OCC4CCCN(C)C4)c2)OCCN(C(=O)Cc2c(C)noc2C)C3)s1` (stereo not shown) [Compound 8], the EC50 [1] was 0.023 ± 0.018 µM, the EC50 [2] was 0.0011 ± 0.0008 µM and the EC50 ([3]; Trypanosoma brucei) was 0.3 ± 0.08 µM. The EC50 [3] was under 0.3 µM, the EC50 (J774A.1 macrophages) was 2.2 ± 1.4 µM and the EC50 [4] was 0.33 µM.

`Oc1c(C(Nc2ccccn2)c2cccc(Cl)c2Cl)ccc2cccnc12` (stereo not shown) [Compound 9] gave an EC50 [1] of 0.1 ± 0.01 µM, an EC50 [2] of 0.015 ± 0.009 µM and an EC50 (J774A.1 macrophages) of 9 ± 6 µM. For the same molecule, the EC50 [4] was 2.1 ± 0.07 µM.

`NC(=O)N1c2ccccc2C=Cc2ccccc21` [carbamazepine] gave a solubility at 18 h ([5]; citrate phosphate buffered saline) of 82.2 µM (≈ 19.4 µg/mL), a Papp at 30 min, 0.05 µM (in vitro [6]; PAMPA) of 95.6 ×10⁻⁶ cm/s and an efflux ratio at 2 h, 10 μmol/L ([7]; Caco-2, pH 7.4, Papp B→A / Papp A→B) of 0.79. The Papp A→B at 2 h, 10 μmol/L ([7]; Caco-2) was 71.8 ± 1.2 ×10⁻⁶ cm/s, the Papp B→A at 2 h, 10 μmol/L ([7]; Caco-2) was 56.5 ± 3.2 ×10⁻⁶ cm/s and the half-life at 99 µM ([8]; simulated gastric fluid with pepsin) was over 24 h. The half-life at 20 μM (in vitro [9]; mouse) was over 4 h, the half-life at 20 μM (in vitro [10]; rat) was over 4 h and the half-life at 20 μM (in vitro [11]; human) was over 4 h.

For `CCCCCCCCCCCCCCCCOP(=O)([O-])OCC[N+](C)(C)C` [miltefosine, reference compound], the “Cutaneous lesion size (footpad width)” value (L. mexicana) was “reduced lesion size from the initial dimension”.

Work on `CCCSc1ccc2nc(NC(=O)OC)[nH]c2c1` [albendazole] yielded a solubility at 18 h [5] of 3.8 µM (≈ 1.01 µg/mL), a Papp at 30 min, 0.05 µM (in vitro [6]) of 204 ×10⁻⁶ cm/s and a half-life at 99 µM ([8]; simulated gi fluid) of over 24 h. For the same molecule, the half-life at 20 μM (in vitro [9]) was 0.7 h, the half-life at 20 μM (in vitro [10]) was 1.62 h and the half-life at 20 μM (in vitro [11]) was over 4 h.

With `C[C@H]1O[C@@H](O[C@H]2[C@@H](O)C[C@H](O[C@H]3[C@@H](O)C[C@H](O[C@H]4CC[C@@]5(C)[C@H](CC[C@@H]6[C@@H]5C[C@@H](O)[C@]5(C)[C@@H](C7=CC(=O)OC7)CC[C@]65O)C4)O[C@@H]3C)O[C@@H]2C)C[C@H](O)[C@@H]1O` [digoxin] the solubility at 18 h [5] was 80.3 µM (≈ 62.7 µg/mL), the efflux ratio at 2 h, 10 μmol/L ([7]; Caco-2, Papp B→A / Papp A→B) was 5.87 and the Papp A→B at 2 h, 10 μmol/L ([7]; Caco-2) was 4.61 ± 0.46 ×10⁻⁶ cm/s. The Papp B→A at 2 h, 10 μmol/L ([7]; Caco-2) was 27.1 ± 2.1 ×10⁻⁶ cm/s, the half-life at 99 µM ([8]; simulated gi fluid) was over 24 h and the half-life at 20 μM (in vitro [9]) was over 4 h. For the same molecule, the half-life at 20 μM (in vitro [10]) was over 4 h and the half-life at 20 μM (in vitro [11]) was over 4 h.
